Measured values from patent US20260364040A1, “MONO- AND BIS-NITROSYLATED PROPANEDIOLS FOR USE IN THE TREATMENT OF A THROMBOEMBOLIC DISEASE” (ATTGENO AB, priority 2023, published 2026).

Tests used:
[1] = rabbit model, Cederqvist et al. 1994; cited from earlier work
[2] = test system: SFLLRN (PAR-1 agonist) stimulated platelets in human whole blood; assay: Platelet aggregation in human whole blood (impedance, Multiplate aggregometer); type: cell-based; conditions: drug added 2 min prior to SFLLRN, impedance 10 min, AUC, n=4
Protocol: FIG. 8: Platelet aggregation in whole blood. Suspensions of human blood were stimulated by the PAR-1 agonist […] in the absence (open bar) and presence of either PDNO (black bar) or nitroglycerine (grey bar). The NO-donating drugs were introduced to the blood 2 min prior to SFLLRN. Platelet aggregation response was analysed as increases in impedance over a period of 10 min and is expressed as area under the curve. The bars represent mean value and standard deviation (n=4).
Potential anti-thrombotic effect of PDNO in vitro was evaluated by analysing aggregation responses to the thrombin mimetic hexapeptide SFLLRN. […]
Heparinized human or pig blood (0.5 ml) was diluted 1:1 with Krebs-Ringer glucose (KRG) buffer (isotone saline, pH 7.4). […] Platelet aggregation in vitro (human blood) and ex vivo (pig blood) was measured as increase in electrical impedance between two platinum electrodes. […]
In the in vitro experiments, PDNO or nitroglycerine (used as control drug) was introduced 2 min prior to the hexapeptide SFLLRN. […] Aggregation responses were registered during 10 min and expressed as area under curve.
Platelet aggregation in whole blood (human blood with heparin as anticoagulant) was analysed as increases in electrical resistance (impedance changes between two platinum electrodes) using a Multiplate aggregometer.

[3] = test system: VASP (Ser239 phosphorylation), NO/cyclic GMP signalling in human platelets; assay: Ser239-specific VASP phosphorylation in isolated human platelets (Western blotting); type: cell-based; conditions: 5 min exposure, unstimulated and SFLLRN-stimulated platelets, n=3
Protocol: FIG. 9: Increases in Ser 239-specific VASP phosphorylation in platelets. Suspensions of isolated human blood platelets were stimulated by either PDNO or nitroglycerine. The platelets were exposed to the NO-donors for 5 min followed by Western immuno blotting for phosphoVASP detection. These experiments were conducted in unstimulated and SFLLRN-stimulated platelets. The PAR-1 agonist was added 2 min after PDNO/nitroglycerine. The bars represent mean value and standard deviation (n=3).
In platelets and vascular smooth muscle cells, the cytoskeleton-binding protein vasodilator-stimulated phosphoprotein (VASP) is a main molecular target for NO/cyclic GMP signalling pathway. Ser239 specific phosphorylation of VASP following NO exposure of platelets is believed to be a pivotal molecular mechanism underlying anti-aggregatory/antithrombotic effects of NO. The effect of PDNO on Ser239-specific VASP phosphorylation was analysed by Western (immuno) blotting.
Aliquots of isolated platelet suspensions were exposed to either PDNO or nitroglyceine for 5 min. This series of experiments were conduced both on resting and SFLLRN-stimulated platelets.
Specifically, NO/cyclic GMP-induced phosphorylation of Ser239 on vasodilator-stimulated phosphoproteins (VASP) was detected by Western blotting. […]

[4] = Circulation times and in vivo half-life estimation from injections and infusions; parameters: species or system pig
Protocol: Intraarterial injections in the left CCA and left CFA and central intravenous injections (PDNO 0.5-4 micromol) were used to estimate in vivo half-life of PDNO in anesthetized, instrumented pigs (n=2). Regional blood flow, mean systemic arterial pressure (MAP), end-tidal nitric oxide (ETNO) and arterial blood gases were measured.
In addition, 10 ml of 5% sodium bicarbonate solution was injected at these sites.
Between the local intraarterial infusion routes, intravenous infusions in the central venous catheter at four doses (3, 10, 30 and 100 nmol kg^−1 min^−1, 10 minutes per dose) were given for reference. There was a washout period of 60 minutes between the PDNO administration.
Primary outcome was effects on regional blood flow, systemic blood pressure and end-tidal nitric oxide (ETNO). […]
The median (25-75 percentiles) circulation times from the carotid and femoral intraarterial injection sites were to first exhalation with increased ETNO 13.5 s (12.3-15.4, n=13) s and 13.7 s (12.9-15.2, n=9), respectively, and from the central intravenous injection site 5.0 s (4.3-5.9, n=29) and 5.3 s (3.3-5.8, n=9). The circulation times between the carotid and femoral intraarterial injection sites to the central intravenous injection site were calculated to 8.5 s and 8.4 s as depicted in Table 1 below.

CC(C)CON=O [isobutyl nitrite]
correlation between in vivo generation of NO and effects on blood pressure [1]: significant correlation between the in vivo generation of NO and effects on blood pressure

CCON=O [ethyl nitrite]
correlation between in vivo generation of NO and effects on blood pressure [1]: significant correlation between the in vivo generation of NO and effects on blood pressure

O=[N+]([O-])OCC(CO[N+](=O)[O-])O[N+](=O)[O-] [nitroglycerine, 1,2,3-propanetriol-nitrate]
SFLLRN-induced platelet aggregation, whole blood [2]: not nitroglycerine significantly inhibited SFLLRN-induced platelet aggregation
Ser239-specific VASP phosphorylation [3]: not nitroglycerine provoked a significant increase in Ser239-specific VASP phosphorylation
correlation between in vivo generation of NO and effects on blood pressure [1]: significant correlation between the in vivo generation of NO and effects on blood pressure

CCCCON=O [butyl nitrite]
correlation between in vivo generation of NO and effects on blood pressure [1]: significant correlation between the in vivo generation of NO and effects on blood pressure

CC(C)CO[N+](=O)[O-] [isobutyl nitrate]
correlation between in vivo generation of NO and effects on blood pressure [1]: significant correlation between the in vivo generation of NO and effects on blood pressure

CC(C)CCON=O [isoamyl nitrite]
correlation between in vivo generation of NO and effects on blood pressure [1]: significant correlation between the in vivo generation of NO and effects on blood pressure

O=C([O-])O.[Na+] [Sodium bicarbonate]
Circulation time (median) between intraarterial and intravenous injection site ([4]; carotid artery and intravenous): 7.0 s
Circulation time (median) between intraarterial and intravenous injection site ([4]; femoral artery and intravenous): 8.9 s
